One assay has as its system MDA-MB-231 cell line. Nature of the assay: MDA-MB-231 cancer cell proliferation inhibition (Cell Titer-Glo). Format: cell-based. Particulars: Homo sapiens, MDA-MB-231 triple-negative breast cancer cell line, 72 hours. Put shortly:
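GI50 comes from CellTiter-Glo luminescence, read 10 min after reagent addition at RT, following 72 h compound treatment. Eleven concentrations were used (⅓ steps, highest 10 μM final) on 2000 cells/well. MDA-MB-231 and MDA-MB-468 were grown in DMEM, SHP-77 in RPMI.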
A general note: ATP-based viability assays read luminescence as a measure of living cells.

For another assay, the system named is human DYRK1A and Tau. Nature of the assay: Tau phosphorylation inhibition, ClariCELL Kinase Cell-Based Assay (Carnabio). Put shortly:
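HEK293 cells transiently expressing human DYRK1A and Tau were exposed to compound, then lysed. Released Tau was captured on plate and its phosphorylation quantified by ELISA with a phospho-Tau-specific antibody.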

The next assay concerns the target LRRK2 (Homo sapiens, UniProt Q5S007). The assay can be described thus: LRRK2 enzyme inhibition, ADP-Glo kinase assay. The assay is classed as biochemical. Also on record: purchased Invitrogen PR8604B. Put shortly:
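Purified human LRRK2 (25 ng) in 40 mM Tris-HCl pH7.4, 20 mM MgCl2, 0.5 mg/ml BSA, 50 μM DTT with 10 μM ATP and substrate ([…]), 2 h at 25° C. Final compound 50 to 0.000001024 μM, 12-point dilution. ADP-Glo luminescence vs solvent control; IC50 (nM).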
In general terms: ADP-Glo first removes unused ATP, then detects ADP through luciferase.

The next assay concerns the target LRRK2 (G2019S) (Homo sapiens, UniProt Q5S007, G2019S). Nature of the assay: LRRK2 G2019S enzyme inhibition, ADP-Glo kinase assay. The assay is classed as biochemical. Also on record: purchased SignalChem L10-12GG. Put shortly: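 Purified human LRRK2 G2019S (16 ng) with 25 μM ATP and 0.2 μg substrate, 2 h at 25° C in 40 mM Tris-HCl pH 7.4, 20 mM MgCl2, 0.5 mg/ml BSA, 50 μM DTT; compound at 12 final concentrations from 50 μM downward. ADP-Glo luminescence versus solvent control gave IC50 (nM).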

Assay [1] deals with T1, LRRK2, LRRK2 (G2019S), DYRK1, CLK1 and TTK kinases (Homo sapiens, UniProt Q13627).
T1 construct: other: DYRK1; Kinase HotSpot service (Reaction Biology), ATP 10 uM
The assay can be described thus: Enzyme IC50 by Kinase HotSpot service (Reaction Biology Corporation), values marked with *. The assay is classed as biochemical. Particulars: DYRK1, ATP 10 uM. Put shortly: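 Radiometric-service kinase assays (Reaction Biology HotSpot protocol) run at 10 uM ATP under uniform conditions. Compounds tested as 3-fold dilution series from a top concentration of […] to give IC50.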

SMILES strings stand for the structures.

Chain of LRRK2 (Q5S007 970-2527 limits assumed): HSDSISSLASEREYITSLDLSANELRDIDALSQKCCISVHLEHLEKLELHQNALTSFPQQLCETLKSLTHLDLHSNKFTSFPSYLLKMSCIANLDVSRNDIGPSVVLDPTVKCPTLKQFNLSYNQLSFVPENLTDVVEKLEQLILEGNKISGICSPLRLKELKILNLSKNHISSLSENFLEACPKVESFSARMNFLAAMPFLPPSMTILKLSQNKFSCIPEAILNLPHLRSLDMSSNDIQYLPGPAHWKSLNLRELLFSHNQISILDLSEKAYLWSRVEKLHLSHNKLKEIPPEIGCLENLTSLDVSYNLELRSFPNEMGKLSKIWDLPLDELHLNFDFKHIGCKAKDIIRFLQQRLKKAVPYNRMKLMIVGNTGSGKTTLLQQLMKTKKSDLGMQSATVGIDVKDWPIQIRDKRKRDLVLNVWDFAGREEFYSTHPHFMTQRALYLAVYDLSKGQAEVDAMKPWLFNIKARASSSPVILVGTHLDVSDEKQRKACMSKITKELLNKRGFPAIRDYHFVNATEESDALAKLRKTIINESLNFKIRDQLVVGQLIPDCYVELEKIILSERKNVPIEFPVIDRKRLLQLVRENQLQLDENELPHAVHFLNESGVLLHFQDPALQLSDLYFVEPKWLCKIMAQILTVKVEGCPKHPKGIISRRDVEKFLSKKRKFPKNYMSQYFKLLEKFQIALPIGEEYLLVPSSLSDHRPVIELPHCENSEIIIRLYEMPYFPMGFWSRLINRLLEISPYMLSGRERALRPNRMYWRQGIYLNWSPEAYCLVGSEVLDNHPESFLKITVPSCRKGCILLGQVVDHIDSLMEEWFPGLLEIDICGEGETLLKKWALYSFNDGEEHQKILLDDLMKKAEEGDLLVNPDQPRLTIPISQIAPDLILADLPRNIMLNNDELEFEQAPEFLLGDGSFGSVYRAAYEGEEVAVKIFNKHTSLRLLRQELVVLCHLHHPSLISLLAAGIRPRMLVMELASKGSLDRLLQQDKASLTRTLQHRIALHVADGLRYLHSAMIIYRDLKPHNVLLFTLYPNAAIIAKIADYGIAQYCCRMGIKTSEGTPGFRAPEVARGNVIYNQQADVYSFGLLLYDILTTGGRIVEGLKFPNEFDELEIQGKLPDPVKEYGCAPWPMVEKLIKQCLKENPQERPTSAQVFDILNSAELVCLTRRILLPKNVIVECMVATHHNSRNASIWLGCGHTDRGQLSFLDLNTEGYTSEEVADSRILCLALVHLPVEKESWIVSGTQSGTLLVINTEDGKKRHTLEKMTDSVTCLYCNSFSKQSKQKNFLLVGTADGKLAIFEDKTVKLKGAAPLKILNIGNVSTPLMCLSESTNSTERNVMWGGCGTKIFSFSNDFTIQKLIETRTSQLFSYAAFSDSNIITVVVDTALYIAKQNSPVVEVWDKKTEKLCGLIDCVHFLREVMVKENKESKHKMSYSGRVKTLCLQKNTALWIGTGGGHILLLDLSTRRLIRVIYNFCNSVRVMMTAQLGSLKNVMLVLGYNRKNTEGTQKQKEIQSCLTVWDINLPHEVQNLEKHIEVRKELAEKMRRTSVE
Chain of LRRK2 (G2019S) (Q5S007 970-2527 G2019S limits assumed): as the sequence (Q5S007 970-2527 limits assumed) above, with G1050S counted along it

In the case of `COCCNc1cc(Nc2ccc(S(=O)(=O)N3CCC(N4CCOCC4)CC3)c3c2OCCO3)nc2[nH]cc(C(F)(F)F)c12` [Example 97, N^4-(2-methoxyethyl)-N^6-(8-((4-morpholonopiperidin-1-yl)sulfonyl)-2,3-dihydrobenzo[b] [1,4]dioxin-5-yl)-3-(trifluoromethyl)-1H-pyrrolo[2,3-b]pyridine-4,6-diamine], the GI50 (in general, the concentration at which growth is held to half of that of the control) in the assay with MDA-MB-231 cell line was in the range of 301 to 1000 nM. In the assay on human DYRK1A and Tau, the inhibition (in general, the change of the read-out against control, counted positive when it falls) at 0.25 µM came out at 22.3%; the inhibition at 0.5 µM is 42%; the inhibition at 1 µM is 67.2%. The half-maximal inhibitory concentration (IC50) (commonly the concentration that gives 50% inhibition) against LRRK2 was less than 100 nM. Further, the IC50 against LRRK2 (G2019S) was less than 100 nM.

For `COc1cc(P2(=O)CCN(C(C)=O)CC2)ccc1Nc1cc(C2CC2)c2c(C(F)(F)F)c[nH]c2n1` [Example 48, 1-(4-(4-((4-cyclopropyl-3-(trifluoromethyl)-1H-pyrrolo[2,3-b]pyridin-6-yl)amino)-3-methoxyphenyl)-4-oxido-1,4-azaphosphinan-1-yl)ethan-1-one], the results for the IC50 (in assay [1]; at LRRK2; on LRRK2 (G2019S)) were less than 100 nM, 301 to 1000 nM and 301 to 1000 nM, respectively. Moreover, the GI50 in the assay on MDA-MB-231 cell line is 301 to 1000 nM.

Turning to `O=C(c1ccc(Nc2cc(C3CC3)c3c(C(F)(F)F)c[nH]c3n2)c2c1OCO2)N1CCC(N2CCOCC2)CC1` [Example 49, (7-((4-cyclopropyl-3-(trifluoromethyl)-1H-pyrrolo[2,3-b]pyridin-6-yl)amino)benzo[d][1,3]dioxol-4-yl)(4-morpholinopiperidin-1-yl)methanone], the values for the IC50 (in assay [1]; against LRRK2) were 101 to 300 nM and less than 100 nM, respectively. This compound also had a GI50 with MDA-MB-231 cell line of 301 to 1000 nM.

The compound `O=C(c1ccc(Nc2cc(NC3CC3)c3c(C(F)(F)F)c[nH]c3n2)c2c1CCO2)N1CCC(N2CCOCC2)CC1` [Example 92, (7-((4-(cyclopropylamino)-3-(trifluoromethyl)-1H-pyrrolo[2,3-b]pyridin-6-yl)amino)-2,3-dihydrobenzofuran-4-yl)(4-morpholinopiperidin-1-yl)methanone] showed a 50% growth inhibitory concentration (GI50) with MDA-MB-231 cell line of 301 to 1000 nM. Moreover, in the assay with human DYRK1A and Tau, the inhibition at 0.25 µM is 27.5%, the inhibition at 0.5 µM is 52.4% and the inhibition at 1 µM is 77.2%. On LRRK2, this compound registered an IC50 of less than 100 nM. The IC50 on LRRK2 (G2019S) is less than 100 nM.

As for `COc1cc(S(=O)(=O)N2CCC(N3CCOCC3)CC2)ccc1Nc1cc(C2CC2)c2c(C#N)c[nH]c2n1` [Example 228, 4-cyclopropyl-6-((2-methoxy-4-((4-morpholinopiperidin-1-yl)sulfonyl)phenyl)amino)-1H-pyrrolo[2,3-b]pyridine-3-carbonitrile], the 50% inhibitory concentration (IC50) (in assay [1]; on LRRK2; against LRRK2 (G2019S)) was less than 100 nM throughout. Further, the GI50 in the assay with MDA-MB-231 cell line lay in the range of 51 to 100 nM.

On to `CNc1cc(Nc2ccc(C(=O)N3CCC(N4CCOCC4)CC3)c3c2OCC3)nc2[nH]cc(C(F)(F)F)c12` [Example 234, (7-((4-(methylamino)-3-(trifluoromethyl)-1H-pyrrolo[2,3-b]pyridin-6-yl)amino)-2,3-dihydrobenzofuran-4-yl)(4-morpholinopiperidin-1-yl)methanone], for which the GI50 in the assay with MDA-MB-231 cell line was 301 to 1000 nM. Also, in the assay on human DYRK1A and Tau, the inhibition at 0.25 µM turned out to be 41.8%, the inhibition at 0.5 µM worked out at 65.3% and the inhibition at 1 µM is 81.5%. For the same compound, the IC50 on LRRK2 is less than 100 nM. In addition, the IC50 at LRRK2 (G2019S) was less than 100 nM.

Consider `N#Cc1c[nH]c2nc(Nc3ccc(C(=O)N4CCOCC4)c4c3OCCO4)cc(C3CC3)c12` [Example 225, 4-cyclopropyl-6-((8-(morpholine-4-carbonyl)-2,3-dihydrobenzo[b] [1,4]dioxin-5-yl)amino)-1H-pyrrolo[2,3-b]pyridine-3-carbonitrile], for which the IC50 is 101 to 300 nM in assay [1], less than 100 nM against LRRK2 and less than 100 nM at LRRK2 (G2019S). This compound also displayed a GI50 in the assay on MDA-MB-231 cell line of 301 to 1000 nM.

In the assay on MDA-MB-231 cell line, `CCNc1cc(Nc2ccc(P3(=O)CCN(C4CCOCC4)CC3)cc2OC)nc2[nH]cc(C(F)(F)F)c12` [Example 94, 4-(4-((4-(ethylamino)-3-(trifluoromethyl)-1H-pyrrolo[2,3-b]pyridin-6-yl)amino)-3-methoxyphenyl)-1-(tetrahydro-2H-pyran-4-yl)-1,4-azaphosphinane 4-oxide] had a GI50 of 301 to 1000 nM. Also, in the assay with human DYRK1A and Tau, the inhibition at 0.25 µM came to 22.2%, the inhibition at 0.5 µM amounted to 30.5% and the inhibition at 1 µM is 53.2%. For the same compound, at LRRK2, the IC50 lay within 101 to 300 nM. Further, the IC50 against LRRK2 (G2019S) lay in the range of 101 to 300 nM.

As for `CNc1cc(Nc2ccc(C(=O)N3CC[C@H](N4CCOCC4)C3)c3c2OCC3)nc2[nH]cc(C(F)(F)F)c12` [Example 217, (S)-(7-((4-(methylamino)-3-(trifluoromethyl)-1H-pyrrolo[2,3-b]pyridin-6-yl)amino)-2,3-dihydrobenzofuran-4-yl)(3-morpholinopyrrolidin-1-yl)methanone], the GI50 in the assay with MDA-MB-231 cell line was in the range of 301 to 1000 nM. Moreover, in the assay with human DYRK1A and Tau, the inhibition at 0.25 µM is 50.2%, the inhibition at 0.5 µM was 60.6% and the inhibition at 1 µM was found to be 84.5%. Further, at LRRK2, the IC50 is less than 100 nM.

Consider `CNc1cc(Nc2ccc(C(=O)N3CC[C@@H](N4CCOCC4)C3)c3c2OCC3)nc2[nH]cc(C(F)(F)F)c12` [Example 214, (R)-(7-((4-(methylamino)-3-(trifluoromethyl)-1H-pyrrolo[2,3-b]pyridin-6-yl)amino)-2,3-dihydrobenzofuran-4-yl)(3-morpholinopyrrolidin-1-yl)methanone], for which, in the assay on MDA-MB-231 cell line, the GI50 was 301 to 1000 nM. In the assay with human DYRK1A and Tau, the inhibition at 0.25 µM was determined as 33.9%, the inhibition at 0.5 µM is 60.1% and the inhibition at 1 µM amounted to 76.8%. At LRRK2, the IC50 was less than 100 nM. Moreover, the IC50 against LRRK2 (G2019S) was less than 100 nM.

`CCNc1cc(Nc2ccc(S(=O)(=O)N3CCC(N4CCOCC4)CC3)c3c2OCCO3)nc2[nH]cc(C(F)(F)F)c12` [Example 96, N^4-ethyl-N^6-(8-((4-morpholonopiperidin-1-yl)sulfonyl)-2,3-dihydrobenzo [b] [1,4]dioxin-5-yl)-3-(trifluoromethyl)-1H-pyrrolo[2,3-b]pyridine-4,6-diamine]: in the assay on MDA-MB-231 cell line, the GI50 lay in the range of 301 to 1000 nM. In the assay on human DYRK1A and Tau, the inhibition at 0.25 µM was 11%, the inhibition at 0.5 µM amounted to 19.6% and the inhibition at 1 µM stood at 52.8%. Further, on LRRK2, the IC50 is less than 100 nM. Also, at LRRK2 (G2019S), the IC50 is less than 100 nM.

In the assay with MDA-MB-231 cell line, `CCNc1cc(Nc2ccc(C(=O)N3CCC(N4CCOCC4)CC3)c3c2OCC3)nc2[nH]cc(C(F)(F)F)c12` [Example 90, (7-((4-(ethylamino)-3-(trifluoromethyl)-1H-pyrrolo[2,3-b]pyridin-6-yl)amino)-2,3-dihydrobenzofuran-4-yl)(4-morpholinopiperidin-1-yl)methanone] showed a GI50 of 301 to 1000 nM. Also, in the assay with human DYRK1A and Tau, the inhibition at 0.25 µM came out at 23.3%, the inhibition at 0.5 µM is 51.7% and the inhibition at 1 µM worked out at 70.3%. The IC50 against LRRK2 is less than 100 nM. Besides, on LRRK2 (G2019S), the IC50 was less than 100 nM.

As for `CNc1cc(Nc2ccc(S(=O)(=O)N3CCC(N4C[C@H]5C[C@@H]4CO5)CC3)cc2OC)nc2[nH]cc(C(F)(F)F)c12` [Example 243, N^6-(4-((4-((1R,4R)-2-oxa-5-azabicyclo[2.2.1]heptan-5-yl)piperidin-1-yl)sulfonyl)-2-methoxyphenyl)-N^4-methyl-3-(trifluoromethyl)-1H-pyrrolo[2,3-b]pyridine-4,6-diamine], in the assay on MDA-MB-231 cell line, the GI50 fell in the range of 101 to 300 nM. In the assay with human DYRK1A and Tau, the inhibition at 0.25 µM was found to be 64.4%, the inhibition at 0.5 µM is 85% and the inhibition at 1 µM amounted to 104%. The IC50 against LRRK2 is less than 100 nM. Further, at LRRK2 (G2019S), the IC50 is less than 100 nM.

The compound `CCNc1cc(Nc2ccc(C(=O)N3CCC(N4C[C@@H]5C[C@H]4CO5)CC3)c3c2OCC3)nc2[nH]cc(C(F)(F)F)c12` [Example 105, (4-((1S,4S)-2-oxa-5-azabicyclo[2.2.1]heptan-5-yl)piperidin-1-yl)(7-((4-(ethylamino)-3-(trifluoromethyl)-1H-pyrrolo[2,3-b]pyridin-6-yl)amino)-2,3-dihydrobenzofuran-4-yl)methanone] gave a GI50 with MDA-MB-231 cell line of 301 to 1000 nM. Besides, in the assay on human DYRK1A and Tau, the inhibition at 0.25 µM stood at 60.2%, the inhibition at 0.5 µM is 74% and the inhibition at 1 µM stood at 92%. Moreover, the IC50 against LRRK2 was less than 100 nM. Moreover, the IC50 against LRRK2 (G2019S) was less than 100 nM.

On to `CNc1cc(Nc2ccc(S(=O)(=O)N3CCC(N4CCOCC4)CC3)c3c2OCCO3)nc2[nH]cc(C(F)(F)F)c12` [Example 233, N^4-methyl-N^6-(8-((4-morpholinopiperidin-1-yl)sulfonyl)-2,3-dihydrobenzo [b] [1,4]dioxin-5-yl)-3-(trifluoromethyl)-1H-pyrrolo[2,3-b]pyridine-4,6-diamine], for which, in the assay on MDA-MB-231 cell line, the GI50 is 301 to 1000 nM. Moreover, in the assay on human DYRK1A and Tau, the inhibition at 0.25 µM came out at 17.7%, the inhibition at 0.5 µM was found to be 34.6% and the inhibition at 1 µM turned out to be 70.3%. This compound also had an IC50 at LRRK2 of less than 100 nM. Moreover, on LRRK2 (G2019S), the IC50 is less than 100 nM.
